Measured values published in patent US12528790B2, “Amide derivative having antiviral activity” (Shionogi & Co., Ltd., priority 2020, dated 2026).
Where two headings read alike, the source gives them in different places.

Key:
[1] = tested on: RSV B (Wash/18537 strain); test: In vitro CPE (CytoPathic Effect) inhibition effect evaluation test, RSV type B; type: cell-based
Procedure: The test sample is diluted in advance to an appropriate concentration with DMSO, and 3-fold series of serial dilutions were prepared on a 384-well plate (0.32 μL/well). HEp-2 cells (CCL-23; ATCC) adjusted at appropriate number (2.4×10^5 cells/mL) in 2% FBS E-MEM (prepared by adding kanamycin and FBS to Eagle's Minimum Essential Medium; Invitrogen) were added at 12.5 μL/well to the 384-well plate previously aliquoted with the test samples. The RSV A2 strain was diluted to an appropriate concentration in a culture medium and added to the 384-well plate containing the test sample at 12.5 μL/well. The culture medium was added additionally to the 384-well plate, and the test was started with 50 μL/well. Control wells were prepared with only virus-free culture medium. The plate was incubated in a 5% CO2 incubator at 37° C. for 4 days, and the plate was then placed at room temperature for 30 minutes. CellTiter-Glo (registered trademark) 2.0 assay (Promega) was added at 15 μL/well, mixed for 30 seconds, and the plate was placed for approximately 1 hour. The luminescent signal was then measured by EnVision (PerkinElmer). The inhibitory effect of the test agents on RSV-induced CPE was calculated as 0% and 100% inhibition rate for each sample concentration based on the level of remaining viable cells by CellTiter-Glo (registered trademark) 2.0, with the EC50 value for each compound calculated by nonlinear regression as the concentration that inhibits RSV-induced CPE by 50%. In the case of evaluation against RSV type B, RSV B (Wash/18537 strain) was infected in the same manner as the type A, cultured for 5 days, and quantitated in the same manner as for the A2 strain.

RSV A2 strain = test: In vitro CPE (CytoPathic Effect) inhibition effect evaluation test, RSV type A; type: cell-based
Outline: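 HEp-2 cells (2.4×10^5 cells/mL, 2% FBS E-MEM) were infected with RSV alongside 3-fold compound dilutions and incubated at 37 °C, 4 days for A2 and 5 days for B Wash/18537. Viable cells quantified by CellTiter-Glo 2.0 luminescence; EC50 by nonlinear regression as 50% CPE inhibition.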

[2] = human respiratory syncytial virus, inhibitory effect against RSV type B, CPE inhibition, read-out: EC50
[3] = human respiratory syncytial virus, inhibitory effect against RSV type A (RSV A2 strain), HEp-2 cells, CPE inhibition, read-out: EC50
[4] = inhibitory effect against RSV type B, CPE inhibition, read-out: EC50
[5] = inhibitory effect against RSV type A (RSV A2 strain), HEp-2 cells, CPE inhibition, read-out: EC50

SMILES | EC50 [1, 2] [nM] | EC50 (RSV A2 strain; [3]) [nM] | further results
Cn1cc2c(n1)CCC(Oc1ccc3c(c1)C1(CCOCC1)CN3c1ncc(C(=O)NC3(C(=O)O)C4CC5CC(C4)CC3C5)c(C(F)(F)F)n1)C2 (racemic) [Compound I-189] | < 10 | < 10 | 
O=C(NC1(C(=O)O)C2CC3CC(C2)CC1C3)c1cnc(N2CC3(CCOC3)c3cc(OC4CCN(c5ncccn5)CC4)ccc32)nc1C(F)(F)F (racemic) [Compound I-257] | < 10 | < 10 | 
COCC(C)n1cc(-c2ncc(C(=O)NC3(C(=O)O)C4CC5CC(C4)CC3C5)c(C(F)(F)F)n2)c2ccc(OC3CCN(c4ncc(F)cn4)CC3)cc21 (racemic) [Compound I-430] | < 10 | < 10 | 
O=C(NC1(C(=O)O)C2CC3CC(C2)CC1C3)c1cnc(N2CC3(CCOC3)c3cc(OCC(F)(F)F)ccc32)nc1C(F)(F)F (racemic) [Compound I-466] | 10 to 100 | < 10 | 
O=C(NC1(C(=O)O)C2CC3CC(C2)CC1C3)c1cnc(N2CC3(CCOC3)c3cc(OC4CCN(CC(F)(F)F)CC4)ccc32)nc1C(F)(F)F (racemic) [Compound I-467] | < 10 | < 10 | 
O=C(NC1(C(=O)O)C2CC3CC(C2)CC1C3)c1cnc(N2CC3(CCCCC3)c3cc(OC4CCC(=NOC5CC(F)(F)C5)CC4)ccc32)nc1C(F)(F)F (racemic) [Compound I-475] |  |  | EC50 [1, 4]: 10 to 100 nM; EC50 (RSV A2 strain; [5]): < 10 nM
O=C(NC1(C(=O)O)C2CC3CC(C2)CC1C3)c1cnc(N2CC(C3CCCC3)c3cc(OC4CCN(c5ncc(F)cn5)CC4)ccc32)nc1C(F)(F)F (racemic) [Compound I-486] |  |  | EC50 ([1]; human respiratory syncytial virus, HEp-2, 120 h, HEp-2 cells, RSV B (Wash/18537 strain), 5 days, CellTiter-Glo, read-out: EC50, inhibitory effect against RSV type B (CPE inhibition)): 28 nM; EC50 (RSV A2 strain; human respiratory syncytial virus, HEp-2, 96 h, read-out: EC50, inhibitory effect against RSV type A (CPE inhibition)): 3 nM
O=C(NC1(C(=O)O)C2CC3CC(C2)CC1C3)c1cnc(N2CC(C3CCCC3)c3cc(OC4CCN(CC(F)(F)F)CC4)ccc32)nc1C(F)(F)F (racemic) [Compound I-487] | 10 to 100 | < 10 | 
COc1cccc(COc2ccc3c(c2)CCN3c2ncc(C(=O)NC3(C(=O)O)CC4CCC3C4)c(C(F)(F)F)n2)c1 (single isomer, unassigned) [Compound I-16] | 10 to 100 | < 10 | 
Cn1ncc2c1CCC(Oc1ccc3c(c1)C1(CCOCC1)CN3c1ncc(C(=O)NC3(C(=O)O)C4CC5CC(C4)CC3C5)c(C(F)(F)F)n1)C2 (single isomer, unassigned) [Compound I-190] | < 10 | < 10 | 
O=C(NC1(C(=O)O)C2CC3CC(C2)CC1C3)c1ccc(-c2cn(C3CCC(F)CC3)c3cc(OC4CCN(c5ncc(F)cn5)CC4)ccc23)nc1C(F)(F)F (single isomer, unassigned) [Compound I-397] | < 10 | < 10 | 
O=C(NC1(C(=O)O)C2CC3CC(C2)CC1C3)c1cnc(-c2cn(C3CCC(F)(F)CC3)c3cc(OC4CC(N5CC(F)(F)C5)C4)ccc23)nc1C(F)(F)F (single isomer, unassigned) [Compound I-412] | 10 to 100 | < 10 | 
O=C(NC1(C(=O)O)C2CC3CC(C2)CC1C3)c1cnc(-c2cn(C3CCC(F)(F)CC3)c3cc(OC4CC(N5CC(F)(F)C5)C4)ccc23)nc1C(F)(F)F (single isomer, unassigned) [Compound I-413] |  |  | EC50 [1, 4]: 10 to 100 nM; EC50 (RSV A2 strain; [5]): < 10 nM
COC1CCC(n2cc(-c3ncc(C(=O)NC4(C(=O)O)C5CC6CC(C5)CC4C6)c(C(F)(F)F)n3)c3ccc(OC4CCN(c5ncc(F)cn5)CC4)cc32)CC1 (single isomer, unassigned) [Compound I-423] | < 10 | < 10 | 
O=C(NC1(C(=O)O)C2CC3CC(C2)CC1C3)c1ccc(-c2cn(C3CC4C=CC(C3)O4)c3cc(OC4CCN(c5ncc(F)cn5)CC4)ccc23)nc1C(F)(F)F (single isomer, unassigned) [Compound I-434] | < 10 | < 10 | 
C/C(=N\OC1CCC(F)(F)CC1)c1ccc2c(c1)C1(CCCCC1)CN2c1ncc(C(=O)NC2(C(=O)O)C3CC4CC(C3)CC2C4)c(C(F)(F)F)n1 (single isomer, unassigned) [Compound I-476] | 100 to 5000 | 10 to 100 | 
C/C(=N\OC1CC(F)(F)C1)c1ccc2c(c1)C1(CCCCC1)CN2c1ncc(C(=O)NC2(C(=O)O)C3CC4CC(C3)CC2C4)c(C(F)(F)F)n1 (single isomer, unassigned) [Compound I-477] | 100 to 5000 | 10 to 100 | 
O=C(NC1(C(=O)O)C2CC3CC(C2)CC1C3)c1cnc(-c2cn(C3CCC(F)(F)CC3)c3cc(OC4CCC(OC5CC5)CC4)ccc23)nc1C(F)(F)F (single isomer, unassigned) [Compound I-478] | < 10 | < 10 | 

SMILES | EC50 [1, 2] [nM] | EC50 (RSV A2 strain; [3]) [nM] | further results
O=C(NC1(C(=O)O)C2CC3CC(C2)CC1C3)c1cnc(-c2cn(C3CCC(F)(F)CC3)c3cc(OC4CCC(OC5CC5)CC4)ccc23)nc1C(F)(F)F (single isomer, unassigned) [Compound I-480] |  |  | EC50 [1, 4]: 10 to 100 nM; EC50 (RSV A2 strain; [5]): < 10 nM
O=C(NC1(C(=O)O)C2CC3CC(C2)CC1C3)c1cnc(N2CC3(CCCCC3)c3c2ccc(OC2CCN(c4ncccn4)CC2)c3F)nc1C(F)(F)F (stereo not shown) [Compound I-439] |  | < 10 | 
CC(F)(F)c1nc(N2CC3(CCCCC3)c3cc(OC4CCN(CC(F)(F)F)CC4)ccc32)nc(C(C)(F)F)c1C(=O)NC1(C(=O)O)C2CC3CC(C2)CC1C3 (stereo not shown) [Compound I-441] |  | 10 to 100 | 
O=C(NC1(C(=O)O)C2CC3CC(C2)CC1C3)c1cnc(N2CC3(CCOCC3)c3cc(OCCC(F)(F)F)ccc32)nc1C(F)(F)F (stereo not shown) [Compound I-442] |  | < 10 | 
O=C(NC1(C(=O)O)C2CC3CC(C2)CC1C3)c1cnc(-c2cn(Cc3ccccc3)c3cc(OC4CCN(c5ncc(F)cn5)CC4)ccc23)nc1C(F)(F)F (stereo not shown) [Compound I-446] |  | < 10 | 
CN(CC(F)(F)F)[C@H]1CC[C@@H](Oc2ccc3c(-c4ncc(C(=O)NC5(C(=O)O)C6CC7CC(C6)CC5C7)c(C(F)(F)F)n4)cn(C4CCC(F)(F)CC4)c3c2)CC1 (stereo partly shown) [Compound I-448] |  | < 10 | 
CN(CC(F)(F)F)[C@H]1CC[C@H](Oc2ccc3c(-c4ncc(C(=O)NC5(C(=O)O)C6CC7CC(C6)CC5C7)c(C(F)(F)F)n4)cn(C4CCC(F)(F)CC4)c3c2)CC1 (stereo partly shown) [Compound I-450] |  | < 10 | 
COc1ccc2c(c1)c(-c1ncc(C(=O)NC3(C(=O)O)C4CC5CC(C4)CC3C5)c(C(F)(F)F)n1)cn2C1CCC(F)(F)CC1 (stereo not shown) [Compound I-454] |  | 10 to 100 | 
COc1ccc2c(-c3ncc(C(=O)NC4(C(=O)O)C5CC6CC(C5)CC4C6)c(C(F)(F)F)n3)cn(C3CCC(F)(F)CC3)c2c1 (stereo not shown) [Compound I-455] |  | 10 to 100 | 
O=C(NC1(C(=O)O)C2CC3CC(C2)CC1C3)c1cnc(N2CC3(CCCCC3)c3cc(O[C@H]4CC[C@H](ON=C5CCC(F)(F)CC5)CC4)ccc32)nc1C(F)(F)F (stereo partly shown) [Compound I-456] |  | 10 to 100 | 
O=C(NC1(C(=O)O)C2CC3CC(C2)CC1C3)c1cnc(N2CC3(CCCCC3)c3cc(O[C@H]4CC[C@@H](ON=C5CCC(F)(F)CC5)CC4)ccc32)nc1C(F)(F)F (stereo partly shown) [Compound I-457] |  | 10 to 100 | 
O=C(NC1(C(=O)O)C2CC3CC(C2)CC1C3)c1cnc(N2CC3(CCOCC3)c3cc(OCC(F)F)ccc32)nc1C(F)(F)F (stereo not shown) [Compound I-459] |  | < 10 | 
O=C(NC1(C(=O)O)C2CC3CC(C2)CC1C3)c1cnc(N2CC3(CCCCC3)c3cc(O[C@H]4CC[C@H](ON=C5CC(F)(F)C5)CC4)ccc32)nc1C(F)(F)F (stereo partly shown) [Compound I-460] |  | < 10 | 
O=C(NC1(C(=O)O)C2CC3CC(C2)CC1C3)c1cnc(N2CC3(CCCCC3)c3cc(O[C@H]4CC[C@@H](ON=C5CC(F)(F)C5)CC4)ccc32)nc1C(F)(F)F (stereo partly shown) [Compound I-461] |  | 10 to 100 | 
O=C(NC1(C(=O)O)C2CC3CC(C2)CC1C3)c1cnc(N2CC3(CCCC3)c3cc(O[C@H]4CC[C@H](N5CC(F)(F)C5)CC4)ccc32)nc1C(F)(F)F (stereo partly shown) [Compound I-462] |  | < 10 | 
O=C(NC1(C(=O)O)C2CC3CC(C2)CC1C3)c1cnc(-c2cn(-c3ncccn3)c3cc(OC4CCN(c5ncc(F)cn5)CC4)ccc23)nc1C(F)(F)F (stereo not shown) [Compound I-468] |  | < 10 | 
O=C(NC1(C(=O)O)C2CC3CC(C2)CC1C3)c1cnc(-c2cn(CCc3ccccc3)c3cc(OC4CCN(c5ncc(F)cn5)CC4)ccc23)nc1C(F)(F)F (stereo not shown) [Compound I-469] |  | < 10 | 
O=C(NC1(C(=O)O)C2CC3CC(C2)CC1C3)c1cnc(N2CC3(CCOCC3)c3cc(-n4ncc5cccnc54)ccc32)nc1C(F)(F)F (stereo not shown) [Compound I-471] |  | < 10 | 
